# Laboratory results reported in paper PMC7079008, “Compactness of Protein Folds Alters Disulfide‐Bond Reducibility by Three Orders of Magnitude: A Comprehensive Kinetic Case Study on the Reduction of Differently Sized Tryptophan Cage Model Proteins” (Chembiochem, 2019).
# Where a SMILES comes first, the peptide text is derived from it. Bridges are numbered along the chain shown (N, C = ends).
# Columns and labels:
# [1] = SS bond reduction by TCEP monitored by 1H NMR; assay type: physicochemical; conditions: 1.7 mM protein, twofold excess of TCEP, 15 °C, pH 7; for TCEP: Elapsed time to steady state / TCEP: k1 / TCEP: t1/2 of reduction: 1H NMR; for TCEP: Conversion rate: 1H NMR Trp Hε1 integrals; for TCEP: k1: parameter estimation; for TCEP: t1/2 of reduction: calculated from k1 (Eq. 12)
# From the text: The SS bond reduction by TCEP is a bimolecular nucleophilic substitution (SN2) reaction.37 Thus, both the concentration of the oxidized form of the protein [_SS] and that of the RA contribute to the rate of the reduction. In an ideal case, we should consider only nucleophilic attack of the RA (k 1), but, as we explained previously, in practice, we also have to take into account back oxidation (k 2), which takes place simultaneously, and, in some cases, depending on the size and shape of the protein, precipitation (k 3; Figure 5). The mechanism of reduction, therefore, can be described by Equations (2), (3), (4):(2) SS+RAred→k12SH+RAox (3) 2SH+O2→k2SS (4) 2SH→k3SSprecipitated
# By fitting this model to the concentration–time functions determined by means of NMR spectroscopy, k 1, k 2, and k 3 can be determined, and half‐lives can be calculated. We focused on the determination of the reduction rate constants k 1; therefore, sampling was more frequent in the reduction phase (stage I; Figure 5 B). Based on parameter estimation (see the Experimental Section), k 2 and k 3 are very often either negligibly small, or, due to a lack of sufficient data, cannot be confidently estimated. Obtaining key kinetic parameters allowed us to describe and compare the reduction kinetics of the SS‐containing miniproteins under various experimental conditions. Some protocols reported in the literature apply extreme conditions, such as high temperature (e.g., 50–80 °C), to obtain short reduction times; this is clearly unsuitable for maintaining the integrity of the protein, or >20‐fold molar excess of reagent. By performing the reduction of E19_SS (0.8 mM) under such conditions (60 °C with 18‐fold TCEP excess), the reaction seemed almost instantaneous (t 1/2<5 min), but the sample became opalescent and side reactions (e.g., precipitation) were instantly detected. Similarly to most globular proteins, the conformational ensemble of E19_2SH at 60 °C is distinctly different from that of 15 °C; thus presenting many more unfolded states. The folded fraction of E19_2SH is 64 % at 15 °C, whereas it is 41 % at 60 °C, according to FUV‐ECD analysis. Instead of intramolecular reoxidation, undesirable intermolecular reoxidation might occur between particles. […] In principle, the reduction rate can be enhanced at lower T by increasing the TCEP molar ratio (15–20‐fold molar excess); however, this also triggers obscure unwanted processes (Figure S5). Experiments were repeated at different temperatures (15, 25, and 37 °C) with 0.8 mM protein and 18‐fold excess of TCEP (Table 2 and Figure S6). The Arrhenius equation allows the activation energy (E a) of the redox reaction to be derived, resulting in a value of about 44.3 kJ mol^−1. For comparison, the activation energy of thiol–disulfide exchange between methylthiolate and oxidized DTT was calculated to be 62 kJ mol^−1.76 Both FUV‐ECD and NMR spectroscopy derived structural information support the high conformational similarity between E19_SS and E19_2SH; therefore, E a is likely to be used for the redox reaction, rather than for the conformational switch between the two conformational states (Table 1). […] Additional experiments were performed to investigate the effect of the protein/RA ratio as a practical perspective (Figure S7). The above‐described NMR spectroscopy methodology provides high‐resolution information about the reduction mechanism, relative to that of the more rapid NUV‐ECD approach, and thus, details of the reduction of all four −SS− protein models were obtained through NMR spectroscopy.
# Monitoring reduction kinetics: Peptide samples were prepared between 0.8 and 1.8 mM in 50 mM NaH2PO4–Na2HPO4 buffer (600 μL, pH 6.95), with 10 % D2O. A 0.1 M solution of NaOH was used to set the pH to 7. […]
# [2] = Degree of fold by FUV-ECD (CCA+ ensemble deconvolution); assay type: physicochemical; conditions: for Degree of the fold by FUV-ECD: T=15 °C, c(protein)=20–30 μM, pH≈7, joint CCA+ deconvolution of 204 T-dependent FUV-ECD spectra; for difference in folded fraction between SS variant and parent: at 4 °C, FUV-ECD ensemble deconvolution
# From the text: Circular dichroism (CD) spectroscopy is increasingly recognized as very sensitive indicator of protein conformation,58, 59 relying on a plethora of electronic transitions. The FUV‐ECD spectra of Trp‐cage proteins (e.g., Exenatide, E19, E19_SS) are typically the weighted sums of the C‐ (folded and highly helical) and U‐type (unfolded) base curves (Figure 2 A), as assigned and verified by means of NMR spectroscopy.60, 61 As the temperature increases, the shape of the FUV‐ECD spectra changes: those of the parent proteins—E2, E5, E11, and E19—acquire more and more U‐type characteristics, as they unfold gradually. The temperature‐dependent FUV‐ECD spectra for all four SS bond enforced model peptides were recorded between 5 and 85 °C (in steps of 5 °C, resulting in 17 spectra for each protein; Figure S1 in the Supporting Information). Aside from E2_SS, the SS‐bond‐containing mutants have similar FUV‐ECD spectra to that of their parent proteins at low temperatures. On the other hand, because the SS bond makes the 3D folds of SS variants more rigid, they preserve their C‐type characteristics better and delay unfolding, even at higher temperatures. Once the SS bond is reduced (see below for details), the spectral properties of the SH variants revert to those of the parent proteins. Their 3D‐scaffold compactness decreases as the temperature increases; this is less apparent in the case of E2 and E2_2SH because they both already present an ensemble of dynamic backbone structures at 5 °C.
# Ensemble deconvolution62, 63 of the 204 (12×17) ECD spectra, f(λ, T), made the quantitative analysis of the relative abundance of secondary structural elements belonging to each peptide in each state possible because the pure ECD curves were successfully assigned.60, 64, 65, 66 The results in Figure 2 B indicate that 1) the SS bond stabilizes the less folded protein scaffolds more effectively, for example, whereas the difference at 4 °C between the E2 and E2_SS folded fraction is 48 %, the same difference between E5 and E5_SS is 14 %; in the case of E11 and E11_SS, it is only 28 %, and for E19 and E19_SS it is 7 % (Figure 2 D). 2) The ratio of the folded, helical components increases upon going from E2 to E5 and E11; however, the compact α‐helical content of E19_SS, E19_2SH, and E19 is lower than those of E11_SS, E11_2SH, and E11 because the unfolded eight‐residue‐long N‐terminal part elevates the overall backbone dynamics, which destabilizes the compact 3D fold. 3) All four reduced proteins (E2_2SH, E5_2SH, E11_2SH, E19_2SH) have a higher helix content (≈7–15 %) than that of the parent proteins over the entire temperature range. 4) The 3D folds stabilized by SS bonds are less sensitive to temperature (Figure 2 C, D).
# ECD: FUV‐ECD spectra were recorded on a Jasco J810 spectrophotometer by using a 1.0 mm path length cuvette with protein concentrations of 20–30 μM. Data accumulation was performed over a range of 185–260 nm, with 0.2 nm step resolution at a scan rate of 50 nm min^−1 with a 1 nm bandwidth. The spectral accumulations were resolved between 5 and 85 °C in steps of 5 °C. The temperature was controlled by using a Peltier‐type heating system. Each spectrum baseline was processed by subtracting the solvent spectrum from that of the protein and the raw ellipticity data were converted into mean residue molar ellipticity units, [Θ]MR.
TCEP: Elapsed time to steady state [1],TCEP: Conversion rate [1],Degree of the fold by FUV-ECD [2],difference in folded fraction between SS variant and parent [2],TCEP: t1/2 of reduction [1],SMILES,TCEP: k1 [1]
<5 min,100%,51.8%,48%,,CC[C@H](C)[C@@H]1NC(=O)[C@H](Cc2ccc(O)cc2)NC(=O)[C@H](CC(C)C)NC(=O)[C@H](CCCNC(=N)N)NC(=O)[C@H](C(C)C)NC(=O)[C@@H](N)CSSC[C@@H](C(=O)O)NC(=O)[C@@H]2CCCN2C(=O)[C@@H]2CCCN2C(=O)[C@@H]2CCCN2C(=O)[C@H](CCCNC(=N)N)NC(=O)CNC(=O)[C@H](CO)NC(=O)[C@H](CO)NC(=O)[C@@H]2CCCN2C(=O)CNC(=O)CNC(=O)[C@H](CC(=O)O)NC(=O)[C@H](CCCCN)NC(=O)[C@H](CC(C)C)NC(=O)[C@H](Cc2c[nH]c3ccccc23)NC(=O)[C@H](CCC(N)=O)NC1=O [E2_SS] (H-CVRLYIQWLKDGGPSSGRPPPC-OH; disulfide 1-22),
≈1 h,93%,63.4%,14%,14 min,CC[C@H](C)[C@@H]1NC(=O)[C@H](Cc2ccc(O)cc2)NC(=O)[C@H](CC(C)C)NC(=O)[C@H](CCCNC(=N)N)NC(=O)[C@H](C(C)C)NC(=O)[C@@H](NC(=O)[C@H](CCC(=O)O)NC(=O)[C@H](CCC(=O)O)NC(=O)[C@@H](N)CCC(=O)O)CSSC[C@@H](C(=O)O)NC(=O)[C@@H]2CCCN2C(=O)[C@@H]2CCCN2C(=O)[C@@H]2CCCN2C(=O)[C@H](CCCNC(=N)N)NC(=O)CNC(=O)[C@H](CO)NC(=O)[C@H](CO)NC(=O)[C@@H]2CCCN2C(=O)CNC(=O)CNC(=O)[C@H](CC(=O)O)NC(=O)[C@H](CCCCN)NC(=O)[C@H](CC(C)C)NC(=O)[C@H](Cc2c[nH]c3ccccc23)NC(=O)[C@H](CCC(N)=O)NC1=O [E5_SS] (H-EEECVRLYIQWLKDGGPSSGRPPPC-OH; disulfide 4-25),0.0185 L/mmol/min
≈5–6 h,94%,96.0%,28%,67 min,CC[C@H](C)[C@@H]1NC(=O)[C@H](Cc2ccc(O)cc2)NC(=O)[C@H](CC(C)C)NC(=O)[C@H](CCCNC(=N)N)NC(=O)[C@H](C(C)C)NC(=O)[C@@H](NC(=O)[C@H](CCC(=O)O)NC(=O)[C@H](CCC(=O)O)NC(=O)[C@H](CCC(=O)O)NC(=O)[C@H](CCSC)NC(=O)[C@H](CCC(N)=O)NC(=O)[C@H](CCCCN)NC(=O)[C@H](CO)NC(=O)[C@H](CC(C)C)NC(=O)[C@@H](N)CC(=O)O)CSSC[C@@H](C(=O)O)NC(=O)[C@@H]2CCCN2C(=O)[C@@H]2CCCN2C(=O)[C@@H]2CCCN2C(=O)[C@H](CCCNC(=N)N)NC(=O)CNC(=O)[C@H](CO)NC(=O)[C@H](CO)NC(=O)[C@@H]2CCCN2C(=O)CNC(=O)CNC(=O)[C@H](CC(=O)O)NC(=O)[C@H](CCCCN)NC(=O)[C@H](CC(C)C)NC(=O)[C@H](Cc2c[nH]c3ccccc23)NC(=O)[C@H](CCC(N)=O)NC1=O [E11_SS] (H-DLSKQMEEECVRLYIQWLKDGGPSSGRPPPC-OH; disulfide 10-31),0.00368 L/mmol/min
